Laboratory results taken from patent publication US4593093A, “Acyl derivatives” (priority 1980, dated 1986).
Counter-ions that a name gives are not always drawn. Like-named read-outs stand apart in the source and are kept apart here.

Tests used:
[1] = tested on: Enterobacter aerogenes; assay: Activity in vitro: minimum inhibitory concentration; format: cell-based; details: Klebsiella aerogenes
[2] = tested on: Klebsiella pseumoniae; assay: as above; format: cell-based
[3] = tested on: Proteus rettgeri; assay: as above; format: cell-based; details: Providencia rettgeri
[4] = tested on: Proteus mirabilis; assay: as above; format: cell-based
[5] = tested on: Streptococcus viridans; assay: as above; format: cell-based
[6] = tested on: Citrobacter freundii; assay: as above; format: cell-based
[7] = tested on: Pseudomonas aeruginosa; assay: as above; format: cell-based
[8] = tested on: Serratia marcescens; assay: as above; format: cell-based
[9] = tested on: Escherichia coli; assay: as above; format: cell-based
[10] = tested on: Streptococcus pneumoniae; assay: as above; format: cell-based
[11] = tested on: Staphylococcus epidermis; assay: as above; format: cell-based
[12] = tested on: Streptococcus pyogenes; assay: as above; format: cell-based
[13] = tested on: Enterobacter cloacae; assay: as above; format: cell-based
[14] = tested on: Proteus inconstans; assay: as above; format: cell-based; details: Providencia alcalifaciens
[15] = tested on: Streptococcus faecalis; assay: as above; format: cell-based; details: Enterococcus faecalis
[16] = tested on: Proteus morganii; assay: as above; format: cell-based; details: Morganella morganii
[17] = Toxicity, LD50; details: in vivo
[18] = tested on: Haemophilus influenzae; assay: Activity in vivo: survival of intraperitoneally infected mice; details: sc, 96 h; mice infected i.p. with Haemophilus influenzae; s.c. twice, 1 h and 3 h after infection; survival on 4th day; read-out: CD50 (dosage at which 50% of the animals survive)
Protocol: (§1) Groups of 5 mice are infected intraperitoneally with an aqueous suspension of various pathogens. The test substance in physiological sodium chloride solution is administered subcutaneously twice, i.e. 1 hour and 3 hours after the infection. The number of surviving animals is determined on the 4th day. Various dosages are administered and that dosage at which 50% of the experimental animals survive (CD50, mg/kg) is determined by interpolation.

[19] = tested on: Escherichia coli; assay: as above; details: sc, 96 h; mice infected i.p. with Escherichia coli; s.c. twice, 1 h and 3 h after infection; survival on 4th day; read-out: CD50 (dosage at which 50% of the animals survive)
Protocol: as §1

[20] = tested on: Streptococcus pyogenes; assay: as above; details: sc, 96 h; mice infected i.p. with Streptococcus pyogenes; s.c. twice, 1 h and 3 h after infection; survival on 4th day; read-out: CD50 (dosage at which 50% of the animals survive)
Protocol: as §1

[21] = tested on: Serratia marcescens; assay: as above; details: sc, 96 h, 1 h and 3 h after infection, survival on 4th day, read-out: CD50 (dosage at which 50% of the animals survive)
Protocol: as §1

[22] = tested on: Enterobacter cloacae; assay: as above; details: sc, 96 h; mice infected i.p. with Enterobacter cloacae; s.c. twice, 1 h and 3 h after infection; survival on 4th day; read-out: CD50 (dosage at which 50% of the animals survive)
Protocol: as §1

[23] = tested on: Pseudomonas aeruginosa; assay: as above; details: sc, 96 h; mice infected i.p. with Pseudomonas aeruginosa; s.c. three times, 1 h, 3 h and 5 h after infection; survival on 4th day; read-out: CD50 (dosage at which 50% of the animals survive)
Protocol: as §1
*Administered subcutaneously three times: 1 hour, 3 hours and 5 hours

[24] = tested on: Staphylococcus aureus; assay: Activity in vitro: minimum inhibitory concentration; format: cell-based
[25] = Enterobacter aerogenes strain 1
[26] = Enterobacter aerogenes strain 2
[27] = Pseudomonas aeruginosa strain 1
[28] = Pseudomonas aeruginosa strain 2
[29] = Pseudomonas aeruginosa strain 3
[30] = Streptococcus pyogenes strain 1, read-out: Minimum inhibitory concentration
[31] = Streptococcus faecalis strain 1
[32] = Streptococcus faecalis strain 2
[33] = mice infected i.p. with Serratia marcescens strain 1, s.c. twice

## CO/N=C(\C(=O)N[C@@H]1C(=O)N2C(C(=O)O)=C(C)CS[C@H]12)c1c[se]c(N)n1 [Product F, (6R, 7R)-7-[2-(2-amino-4-selenazolyl)-2-[(Z)-methoxyimino]-acetamido]-3-methyl-3-oxo-5-thia-1-azabicyclo[4.2.0]oct-2-ene-2-carboxylic acid sodium salt]
[1]; [25]
  MIC: 0.2 µg/mL
[1]; [26]
  MIC: 0.2 µg/mL
[2]; Klebsiella pseumoniae strain 1
  MIC: 0.2 µg/mL
[2]; Klebsiella pseumoniae strain 2
  MIC: 0.05 µg/mL
[2]; Klebsiella pseumoniae strain 3
  MIC: 0.05 µg/mL
[3]
  MIC: 0.1 µg/mL
[4]; Proteus mirabilis strain 3
  MIC: 0.1 µg/mL
[4]; Proteus mirabilis strain 4
  MIC: 0.8 µg/mL
[4]; Proteus mirabilis strain 5
  MIC: 0.4 µg/mL
[5]
  MIC: 12.5 µg/mL
[6]; Citrobacter freundii strain 1
  MIC: 200 µg/mL
[6]; Citrobacter freundii strain 2
  MIC: 1.6 µg/mL
[7]; [27]
  MIC: > 200 µg/mL
[7]; [28]
  MIC: > 200 µg/mL
[7]; [29]
  MIC: 200 µg/mL
[8]; Serratia marcescens strain 1
  MIC: 3.1 µg/mL
[8]; Serratia marcescens strain 2
  MIC: 6.3 µg/mL
[8]; Serratia marcescens strain 3
  MIC: 0.4 µg/mL
[9]; Escherichia coli strain 1
  MIC: 0.8 µg/mL
[9]; Escherichia coli strain 2
  MIC: 0.05 µg/mL
[9]; Escherichia coli strain 3
  MIC: 12.5 µg/mL
[9]; Escherichia coli strain 4
  MIC: 100 µg/mL
[9]; Escherichia coli strain 5
  MIC: 3.1 µg/mL
[10]
  MIC: 12.5 µg/mL
[11]
  MIC: 100 µg/mL
[12]; [30]
  MIC: 3.1 µg/mL
[12]; Streptococcus pyogenes strain 2, read-out: Minimum inhibitory concentration
  MIC: 0.05 µg/mL
[13]; Enterobacter cloacae strain 1
  MIC: > 200 µg/mL
[13]; Enterobacter cloacae strain 2
  MIC: 25 µg/mL
[13]; Enterobacter cloacae strain 3
  MIC: > 200 µg/mL
[14]
  MIC: ≤ 0.025 µg/mL
[15]; [31]
  MIC: > 200 µg/mL
[15]; [32]
  MIC: > 200 µg/mL
[16]
  MIC: 50 µg/mL
[17]; po
  LD50: > 5000 mg/kg
[17]; sc
  LD50: > 4000 mg/kg
[18]
  ED50: 4 mg/kg
[19]
  ED50: 0.06 mg/kg
[20]
  ED50: < 0.05 mg/kg
[21]; [33]
  ED50: 0.59 mg/kg
[21]; mice infected i.p. with Serratia marcescens strain 2, s.c. twice
  ED50: 5.1 mg/kg
[22]
  ED50: > 25 mg/kg
[23]
  ED50: > 200 mg/kg
[24]; Staphylococcus aureus strain 1
  MIC: 50 µg/mL
[24]; Staphylococcus aureus strain 2
  MIC: 100 µg/mL
[24]; Staphylococcus aureus strain 3
  MIC: 50 µg/mL
[24]; Staphylococcus aureus strain 4
  MIC: 100 µg/mL

## CO/N=C(\C(=O)N[C@@H]1C(=O)N2C(C(=O)[O-])=C(CSc3n[nH]c(=O)c(=O)n3C)CS[C@H]12)c1c[se]c(N)n1.[Na+] [Product G, (6R, 7R)-7-[2-(2-amino-4-selenazolyl)-2-[(Z)-methoxyimino]-acetamido]-8-oxo-3-[[(1,4,5,6-tetrahydro-4-methyl-5,6-dioxo-as-triazin-3-yl)thio]methyl]-5-thia-1-azabicyclo[4.2.0]oct-2-ene-2-carboxylic acid sodium salt]
[1]; [25]
  MIC: 0.1 µg/mL
[1]; [26]
  MIC: 0.1 µg/mL
[2]; Klebsiella pseumoniae strain 1
  MIC: 0.1 µg/mL
[2]; Klebsiella pseumoniae strain 2
  MIC: 0.025 µg/mL
[2]; Klebsiella pseumoniae strain 3
  MIC: 0.05 µg/mL
[3]
  MIC: 0.05 µg/mL
[4]; Proteus mirabilis strain 3
  MIC: 0.4 µg/mL
[4]; Proteus mirabilis strain 4
  MIC: 0.025 µg/mL
[4]; Proteus mirabilis strain 5
  MIC: 0.025 µg/mL
[5]
  MIC: 0.8 µg/mL
[6]; Citrobacter freundii strain 1
  MIC: 1.6 µg/mL
[6]; Citrobacter freundii strain 2
  MIC: 0.1 µg/mL
[7]; [27]
  MIC: 50 µg/mL
[7]; [28]
  MIC: 50 µg/mL
[7]; [29]
  MIC: 25 µg/mL
[8]; Serratia marcescens strain 1
  MIC: 0.2 µg/mL
[8]; Serratia marcescens strain 2
  MIC: 0.4 µg/mL
[8]; Serratia marcescens strain 3
  MIC: 0.1 µg/mL
[9]; Escherichia coli strain 1
  MIC: 0.05 µg/mL
[9]; Escherichia coli strain 2
  MIC: 0.012 µg/mL
[9]; Escherichia coli strain 3
  MIC: 0.2 µg/mL
[9]; Escherichia coli strain 4
  MIC: 0.2 µg/mL
[9]; Escherichia coli strain 5
  MIC: 0.2 µg/mL
[10]
  MIC: 0.1 µg/mL
[11]
  MIC: 0.8 µg/mL
[12]; [30]
  MIC: 0.05 µg/mL
[13]; Enterobacter cloacae strain 1
  MIC: > 100 µg/mL
[13]; Enterobacter cloacae strain 2
  MIC: 0.8 µg/mL
[13]; Enterobacter cloacae strain 3
  MIC: 50 µg/mL
[14]
  MIC: 0.006 µg/mL
[15]; [31]
  MIC: 25 µg/mL
[15]; [32]
  MIC: 50 µg/mL
[16]
  MIC: 0.05 µg/mL
[17]; po
  LD50: > 5000 mg/kg
[17]; sc
  LD50: > 4000 mg/kg
[18]
  ED50: 0.25 mg/kg
[19]
  ED50: < 0.003 mg/kg
[20]
  ED50: 0.02 mg/kg
[21]; [33]
  ED50: 0.2 mg/kg
[22]
  ED50: 9.2 mg/kg
[23]
  ED50: > 200 mg/kg
[24]; Staphylococcus aureus strain 1
  MIC: 0.4 µg/mL
[24]; Staphylococcus aureus strain 2
  MIC: 1.6 µg/mL
[24]; Staphylococcus aureus strain 3
  MIC: 0.8 µg/mL
[24]; Staphylococcus aureus strain 4
  MIC: 0.8 µg/mL
